Reference: ChEMBL document CHEMBL4715883, “Novel BuChE-IDO1 inhibitors from sertaconazole: Virtual screening, chemical optimization and molecular modeling studies” (Bioorg Med Chem Lett, 2021)

Tests used:
[1] = biological target: Cholinesterase (Equus caballus, UniProt P81908); assay: Inhibition of equine serum BuChE using butyrylthiocholine iodide as substrate preincubated for 5 mins followed by substrate addition and measured after 2 mins by Ellman's method; assay type: cell-free
[2] = biological target: Indoleamine 2,3-dioxygenase 1 (Homo sapiens, UniProt P14902); assay: Inhibition of human N-terminal IDO1 expressed in Escherichia coli BL21 A1 cells using L-tryptophan as substrate measured after 30 mins by HPLC analysis
[3] = biological target: Acetylcholinesterase (Electrophorus electricus) (UniProt O42275); assay: Inhibition of electric eel […] iodide as substrate at 50 uM preincubated for 5 mins followed by substrate addition and measured after 2 mins by Ellman's method relative to control; settings: time 7.0 min
[4] = biological target: Acetylcholinesterase (Electrophorus electricus, UniProt O42275); assay: Inhibition of electric eel […] iodide as substrate preincubated for 5 mins followed by substrate addition and measured after 2 mins by Ellman's method
[5] = Selectivity index, ratio of IC50 for inhibition of electric eel […] iodide as substrate to IC50 for inhibition of equine serum BuChE using butyrylthiocholine iodide as substrate
[6] = Cytotoxicity against human SH-SY5Y cells assessed as reduction in cell viability after 48 hrs by MTT assay; assay type: cell-based; settings: read-out: LD50
[7] = organism: Homo sapiens; assay: Inhibition of amyloid beta (1 to 42) (unknown origin) aggregation by ThT fluorescence assay; settings: dose 10-50 µM
[8] = organism: Homo sapiens; assay: inhibition of amyloid beta (1 to 42) (unknown origin) aggregation at 50 uM by ThT fluorescence assay relative to control

Sequence of Acetylcholinesterase (Electrophorus electricus) (O42275 24-633 limits assumed): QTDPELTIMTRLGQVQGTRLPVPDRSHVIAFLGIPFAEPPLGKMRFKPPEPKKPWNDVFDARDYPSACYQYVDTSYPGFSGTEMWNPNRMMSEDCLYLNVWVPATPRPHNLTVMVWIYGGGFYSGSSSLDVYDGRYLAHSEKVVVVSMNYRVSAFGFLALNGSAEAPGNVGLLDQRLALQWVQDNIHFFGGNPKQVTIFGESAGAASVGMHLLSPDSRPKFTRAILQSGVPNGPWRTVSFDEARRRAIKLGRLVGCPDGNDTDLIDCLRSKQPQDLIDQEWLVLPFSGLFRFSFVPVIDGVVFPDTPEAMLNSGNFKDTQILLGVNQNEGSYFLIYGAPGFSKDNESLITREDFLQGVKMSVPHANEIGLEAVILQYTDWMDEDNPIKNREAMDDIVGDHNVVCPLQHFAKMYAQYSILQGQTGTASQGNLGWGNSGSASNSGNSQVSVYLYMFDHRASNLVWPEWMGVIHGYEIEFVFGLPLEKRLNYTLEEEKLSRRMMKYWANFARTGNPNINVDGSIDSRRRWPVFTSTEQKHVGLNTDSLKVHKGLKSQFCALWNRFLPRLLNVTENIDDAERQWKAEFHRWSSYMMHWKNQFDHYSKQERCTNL
Sequence of Indoleamine 2,3-dioxygenase 1 (P14902 whole entry): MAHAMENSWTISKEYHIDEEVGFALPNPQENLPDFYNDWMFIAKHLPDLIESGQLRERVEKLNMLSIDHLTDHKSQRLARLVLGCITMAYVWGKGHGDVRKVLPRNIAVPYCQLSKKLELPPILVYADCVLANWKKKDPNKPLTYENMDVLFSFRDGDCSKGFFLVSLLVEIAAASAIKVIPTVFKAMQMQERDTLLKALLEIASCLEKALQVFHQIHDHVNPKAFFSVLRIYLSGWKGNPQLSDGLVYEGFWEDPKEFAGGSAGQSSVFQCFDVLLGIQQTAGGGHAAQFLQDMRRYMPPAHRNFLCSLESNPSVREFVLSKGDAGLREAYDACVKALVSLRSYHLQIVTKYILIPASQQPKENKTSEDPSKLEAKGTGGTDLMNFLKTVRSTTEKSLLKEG
Sequence of Cholinesterase (P81908 whole entry): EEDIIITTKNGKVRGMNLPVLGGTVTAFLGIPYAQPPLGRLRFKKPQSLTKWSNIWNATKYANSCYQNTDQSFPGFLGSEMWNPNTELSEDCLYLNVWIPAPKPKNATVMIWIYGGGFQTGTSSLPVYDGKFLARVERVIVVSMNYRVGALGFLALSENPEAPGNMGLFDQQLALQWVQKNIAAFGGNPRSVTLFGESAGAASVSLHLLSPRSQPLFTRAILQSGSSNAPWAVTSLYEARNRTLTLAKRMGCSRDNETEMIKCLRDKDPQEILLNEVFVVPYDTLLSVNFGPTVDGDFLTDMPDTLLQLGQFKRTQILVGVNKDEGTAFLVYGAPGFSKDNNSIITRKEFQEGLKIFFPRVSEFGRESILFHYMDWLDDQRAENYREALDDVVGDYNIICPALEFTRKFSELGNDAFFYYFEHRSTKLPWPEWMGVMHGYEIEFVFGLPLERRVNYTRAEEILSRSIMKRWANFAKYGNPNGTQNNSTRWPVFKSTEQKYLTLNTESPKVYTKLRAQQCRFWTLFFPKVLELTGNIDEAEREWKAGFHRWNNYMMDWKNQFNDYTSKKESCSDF
Sequence of Acetylcholinesterase (O42275 whole entry): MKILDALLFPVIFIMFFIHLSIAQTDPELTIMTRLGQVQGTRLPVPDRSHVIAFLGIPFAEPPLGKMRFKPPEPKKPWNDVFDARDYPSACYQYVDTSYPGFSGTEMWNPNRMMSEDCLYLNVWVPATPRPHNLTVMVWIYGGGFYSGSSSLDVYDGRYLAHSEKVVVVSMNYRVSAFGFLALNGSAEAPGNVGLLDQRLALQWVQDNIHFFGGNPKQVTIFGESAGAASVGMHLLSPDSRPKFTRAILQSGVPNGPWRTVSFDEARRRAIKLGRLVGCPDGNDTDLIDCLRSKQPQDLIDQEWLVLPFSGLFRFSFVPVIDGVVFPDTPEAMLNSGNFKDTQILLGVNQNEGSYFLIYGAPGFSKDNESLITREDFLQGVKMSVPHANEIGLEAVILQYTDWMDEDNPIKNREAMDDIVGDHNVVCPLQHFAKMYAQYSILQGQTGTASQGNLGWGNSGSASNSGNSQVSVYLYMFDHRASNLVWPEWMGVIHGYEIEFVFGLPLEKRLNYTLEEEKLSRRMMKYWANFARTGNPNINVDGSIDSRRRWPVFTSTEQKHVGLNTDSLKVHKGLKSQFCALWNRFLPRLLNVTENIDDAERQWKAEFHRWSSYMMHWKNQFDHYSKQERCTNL

SMILES	IC50 [1] [µM]	IC50 [2] [µM]	inhibition [3] [%]	IC50 [4] [µM]	Ratio IC50 [5]	CC50 at 48 h [6] [µM]	inhibition [7]	inhibition [8] [%]
Fc1ccc(C(Cn2ccnc2)OCc2nc3ccccc3s2)cc1 (stereo not drawn)	3.9	73.6	11.4					
Fc1cc(C(Cn2ccnc2)OCc2nc3ccccc3s2)ccc1Cl (stereo not drawn)	6.2	57.7	22.1					
Clc1ccc(C(Cn2ccnc2)OCc2cccc3ccccc23)c(Cl)c1 (stereo not drawn)	4	48.6		90.4	22.6			
Fc1ccc(C(Cn2ccnc2)OCc2nc3ccccc3s2)cc1F (stereo not drawn)	1.1	35.4	7.2		> 50			
Clc1ccccc1C(Cn1ccnc1)OCc1nc2ccccc2s1 (stereo not drawn)	11.3	59.6	47.4	58.7				
Clc1ccc(COC(Cn2ccnc2)c2ccc(Cl)cc2Cl)c(Cl)c1 (stereo not drawn) [MICONAZOLE]	4.3	2.9		2.4	0.6			
Clc1ccc(C(Cn2ccnc2)OCc2nc3ccccc3s2)cc1Cl (stereo not drawn)	1	3	5		> 50			
Clc1ccc(C(Cn2ccnc2)OCc2nc3ccccc3o2)c(Cl)c1 (stereo not drawn)	17.6	136		44.6	2.5			
Brc1cccc(C(Cn2ccnc2)OCc2nc3ccccc3s2)c1 (stereo not drawn)	15.1	3.7	25.5					
Fc1ccc(C(Cn2ccnc2)OCc2nc3ccccc3s2)c(F)c1 (stereo not drawn)	5.7	133	12.4					
Clc1ccc(C(Cn2ccnc2)OCc2nc3ccccc3s2)c(Cl)c1 (stereo not drawn)	3.9	6.7		13.1	3.4	11.8	Dose-dependent effect	52.2
Clc1cccc(C(Cn2ccnc2)OCc2nc3ccccc3s2)c1 (stereo not drawn)	6	25	19.9					
Clc1ccc(C(Cn2ccnc2)OCc2cccnc2)c(Cl)c1 (stereo not drawn)	41.7	94.5		11.9	0.3			
Clc1ccc(C(Cn2ccnc2)OCc2cc3ccccc3s2)c(Cl)c1 (stereo not drawn)	1.4	17.7		15.5	11			
Brc1ccc(C(Cn2ccnc2)OCc2nc3ccccc3s2)cc1 (stereo not drawn)	10	49.3	21					
Clc1ccc(C(Cn2ccnc2)OCc2csc3c(Cl)cccc23)c(Cl)c1 (stereo not drawn) [SERTACONAZOLE]	7.4	3.8						
Clc1ccc(C(Cn2ccnc2)OCc2ccsc2)c(Cl)c1 (stereo not drawn)	31.9	63.6		18.3	0.6			
Clc1ccc(C(Cn2ccnc2)OCc2ccc3ccccc3c2)c(Cl)c1 (stereo not drawn)	0.09	22.3		4.3	47.8	9.8	Dose-dependent effect	48.3
Clc1ccc(C(Cn2ccnc2)OCc2nc3ccccc3s2)cc1 (stereo not drawn)	7.9	87	17.8					
